Species: Rattus norvegicus
Experiment: Open TG-GATES - Regimen: Daily Repeat
Assay type: toxicity, organism-based, Sprague-Dawley
Set-up: regimen Daily Repeat, gender Male, age 6 weeks
Details: in vivo, po, 0 mg/kg, route gavage, dose level Control; for APTT / Bas / Eos / Fbg / Hb / Ht / Lym / MCH / MCHC / MCV / Mono / Neu / PT / Plat / RBC / Ret / WBC: tissue Blood; for KIDNEY_L / KIDNEY_R / KIDNEY_TOTAL: tissue Kidney; for LIVER: tissue Liver; for A/G / ALP / ALT / AST / BUN / CRE / Ca / Cl / DBIL / GLC / IP / K / LDH / Na / PL / RALB / TBIL / TC / TG / TP / gamma-GTP: tissue Plasma

For CC(C)C(=O)Nc1ccc([N+](=O)[O-])c(C(F)(F)F)c1 [FLUTAMIDE], the TERMINAL_BW (72 h, time 3 day) was 224.3 g, the APTT (72 h, time 3 day) was 19 s and the Bas (72 h, time 3 day) was 0%. It also gave an Eos (72 h, time 3 day) of 1%, a Fbg (72 h, time 3 day) of 219.2 mg/dL and a Hb (72 h, time 3 day) of 13.9 g/dL. For the same molecule, the Ht (72 h, time 3 day) was 41.8%, the Lym (72 h, time 3 day) was 79% and the MCH (72 h, time 3 day) was 21.5 pg. For the same molecule, the MCHC (72 h, time 3 day) was 33.3%, the MCV (72 h, time 3 day) was 64.6 fL and the Mono (72 h, time 3 day) was 3%. For the same molecule, the Neu (72 h, time 3 day) was 16%, the PT (72 h, time 3 day) was 12.4 s and the Plat (72 h, time 3 day) was 122.4 x10_4/uL. It also gave an RBC (72 h, time 3 day) of 648 x10_4/ul, a Ret (72 h, time 3 day) of 5.4% and a WBC (72 h, time 3 day) of 82.7 x10_2/uL. The KIDNEY_L (72 h, time 3 day) was 1 g, the KIDNEY_R (72 h, time 3 day) was 1 g and the KIDNEY_TOTAL (72 h, time 3 day) was 2 g. The LIVER (72 h, time 3 day) was 10.4 g, the A/G (72 h, time 3 day) was 1.5 and the ALP (72 h, time 3 day) was 1016 IU/L. The ALT (72 h, time 3 day) was 41.6 IU/L, the AST (72 h, time 3 day) was 72.8 IU/L and the BUN (72 h, time 3 day) was 13.6 mg/dL. The CRE (72 h, time 3 day) was 0.4 mg/dL, the Ca (72 h, time 3 day) was 10.5 mg/dL and the Cl (72 h, time 3 day) was 103.8 meq/L. It also gave a DBIL (72 h, time 3 day) of 0.09 mg/dL, a GLC (72 h, time 3 day) of 220.2 mg/dL and an IP (72 h, time 3 day) of 7.1 mg/dL. For the same molecule, the K (72 h, time 3 day) was 4.1 meq/L, the LDH (72 h, time 3 day) was 204.4 IU/L and the Na (72 h, time 3 day) was 139.8 meq/L. The PL (72 h, time 3 day) was 139 mg/dL, the RALB (72 h, time 3 day) was 3.3 g/dL and the TBIL (72 h, time 3 day) was 0.1 mg/dL. It also gave a TC (72 h, time 3 day) of 76.2 mg/dL, a TG (72 h, time 3 day) of 71.8 mg/dL and a TP (72 h, time 3 day) of 5.5 g/dL. It also gave a gamma-GTP (72 h, time 3 day) of 0.8 IU/L, a TERMINAL_BW ([…], time 7 day) of 253 g and a TERMINAL_BW ([…], time 14 day) of 303.3 g. For the same molecule, the TERMINAL_BW ([…], time 28 day) was 371.7 g, the APTT ([…], time 7 day) was 19.5 s and the Bas ([…], time 7 day) was 0%. The Eos ([…], time 7 day) was 1%, the Fbg ([…], time 7 day) was 230.6 mg/dL and the Hb ([…], time 7 day) was 13.8 g/dL. For the same molecule, the Ht ([…], time 7 day) was 40.6%, the Lym ([…], time 7 day) was 81.6% and the MCH ([…], time 7 day) was 21.1 pg. The MCHC ([…], time 7 day) was 33.9%, the MCV ([…], time 7 day) was 62.3 fL and the Mono ([…], time 7 day) was 2.4%. The Neu ([…], time 7 day) was 14.6%, the PT ([…], time 7 day) was 12.2 s and the Plat ([…], time 7 day) was 133.9 x10_4/uL. It also gave an RBC ([…], time 7 day) of 652.6 x10_4/ul, a Ret ([…], time 7 day) of 4.9% and a WBC ([…], time 7 day) of 141.3 x10_2/uL. It also gave an APTT ([…], time 14 day) of 20.7 s, a Bas ([…], time 14 day) of 0% and an Eos ([…], time 14 day) of 0.8%. It also gave a Fbg ([…], time 14 day) of 227 mg/dL, a Hb ([…], time 14 day) of 14.4 g/dL and a Ht ([…], time 14 day) of 42.3%. It also gave a Lym ([…], time 14 day) of 80.8%, an MCH ([…], time 14 day) of 20.8 pg and an MCHC ([…], time 14 day) of 34.1%. For the same molecule, the MCV ([…], time 14 day) was 60.9 fL, the Mono ([…], time 14 day) was 2.4% and the Neu ([…], time 14 day) was 15.2%. The PT ([…], time 14 day) was 12.2 s, the Plat ([…], time 14 day) was 128 x10_4/uL and the RBC ([…], time 14 day) was 695 x10_4/ul. It also gave a Ret ([…], time 14 day) of 4.3%, a WBC ([…], time 14 day) of 110.8 x10_2/uL and an APTT ([…], time 28 day) of 19.6 s. For the same molecule, the Bas ([…], time 28 day) was 0%, the Eos ([…], time 28 day) was 0.8% and the Fbg ([…], time 28 day) was 229.6 mg/dL. It also gave a Hb ([…], time 28 day) of 15.2 g/dL, a Ht ([…], time 28 day) of 43.5% and a Lym ([…], time 28 day) of 82.8%. The MCH ([…], time 28 day) was 19.9 pg, the MCHC ([…], time 28 day) was 35% and the MCV ([…], time 28 day) was 56.8 fL. The Mono ([…], time 28 day) was 2.2%, the Neu ([…], time 28 day) was 13.6% and the PT ([…], time 28 day) was 12.2 s. It also gave a Plat ([…], time 28 day) of 107.9 x10_4/uL, an RBC ([…], time 28 day) of 765.6 x10_4/ul and a Ret ([…], time 28 day) of 2.3%. It also gave a WBC ([…], time 28 day) of 122 x10_2/uL, a KIDNEY_L ([…], time 7 day) of 1.1 g and a KIDNEY_R ([…], time 7 day) of 1.1 g. The KIDNEY_TOTAL ([…], time 7 day) was 2.2 g, the KIDNEY_L ([…], time 14 day) was 1.2 g and the KIDNEY_R ([…], time 14 day) was 1.2 g. The KIDNEY_TOTAL ([…], time 14 day) was 2.5 g, the KIDNEY_L ([…], time 28 day) was 1.3 g and the KIDNEY_R ([…], time 28 day) was 1.3 g. The KIDNEY_TOTAL ([…], time 28 day) was 2.7 g, the LIVER ([…], time 7 day) was 11.7 g and the LIVER ([…], time 14 day) was 13.4 g. For the same molecule, the LIVER ([…], time 28 day) was 15 g, the A/G ([…], time 7 day) was 1.6 and the ALP ([…], time 7 day) was 743.8 IU/L. The ALT ([…], time 7 day) was 35.2 IU/L, the AST ([…], time 7 day) was 61.6 IU/L and the BUN ([…], time 7 day) was 15.6 mg/dL. It also gave a CRE ([…], time 7 day) of 0.4 mg/dL, a Ca ([…], time 7 day) of 10.7 mg/dL and a Cl ([…], time 7 day) of 103.4 meq/L. For the same molecule, the DBIL ([…], time 7 day) was 0.09 mg/dL, the GLC ([…], time 7 day) was 214.8 mg/dL and the IP ([…], time 7 day) was 6.8 mg/dL. For the same molecule, the K ([…], time 7 day) was 3.7 meq/L, the LDH ([…], time 7 day) was 167.2 IU/L and the Na ([…], time 7 day) was 141 meq/L. The PL ([…], time 7 day) was 140.4 mg/dL, the RALB ([…], time 7 day) was 3.6 g/dL and the TBIL ([…], time 7 day) was 0.2 mg/dL. The TC ([…], time 7 day) was 72.6 mg/dL, the TG ([…], time 7 day) was 82.6 mg/dL and the TP ([…], time 7 day) was 5.8 g/dL. For the same molecule, the gamma-GTP ([…], time 7 day) was 1.2 IU/L, the A/G ([…], time 14 day) was 1.5 and the ALP ([…], time 14 day) was 842.2 IU/L. It also gave an ALT ([…], time 14 day) of 35 IU/L, an AST ([…], time 14 day) of 61.8 IU/L and a BUN ([…], time 14 day) of 14.4 mg/dL. It also gave a CRE ([…], time 14 day) of 0.4 mg/dL, a Ca ([…], time 14 day) of 10.6 mg/dL and a Cl ([…], time 14 day) of 103.2 meq/L. For the same molecule, the DBIL ([…], time 14 day) was 0.096 mg/dL, the GLC ([…], time 14 day) was 202.2 mg/dL and the IP ([…], time 14 day) was 6.8 mg/dL. The K ([…], time 14 day) was 3.8 meq/L, the LDH ([…], time 14 day) was 150 IU/L and the Na ([…], time 14 day) was 141.2 meq/L. The PL ([…], time 14 day) was 133.4 mg/dL, the RALB ([…], time 14 day) was 3.5 g/dL and the TBIL ([…], time 14 day) was 0.2 mg/dL. The TC ([…], time 14 day) was 67 mg/dL, the TG ([…], time 14 day) was 100.4 mg/dL and the TP ([…], time 14 day) was 5.8 g/dL. It also gave a gamma-GTP ([…], time 14 day) of 0.8 IU/L, an A/G ([…], time 28 day) of 1.4 and an ALP ([…], time 28 day) of 578 IU/L. The ALT ([…], time 28 day) was 32 IU/L, the AST ([…], time 28 day) was 50 IU/L and the BUN ([…], time 28 day) was 15.8 mg/dL. The CRE ([…], time 28 day) was 0.5 mg/dL, the Ca ([…], time 28 day) was 10.3 mg/dL and the Cl ([…], time 28 day) was 104.6 meq/L. The DBIL ([…], time 28 day) was 0.072 mg/dL, the GLC ([…], time 28 day) was 226.2 mg/dL and the IP ([…], time 28 day) was 7 mg/dL. The K ([…], time 28 day) was 3.8 meq/L, the LDH ([…], time 28 day) was 121.6 IU/L and the Na ([…], time 28 day) was 140.8 meq/L. For the same molecule, the PL ([…], time 28 day) was 130.2 mg/dL, the RALB ([…], time 28 day) was 3.5 g/dL and the TBIL ([…], time 28 day) was 0.1 mg/dL. It also gave a TC ([…], time 28 day) of 70.4 mg/dL, a TG ([…], time 28 day) of 60.8 mg/dL and a TP ([…], time 28 day) of 6 g/dL. The gamma-GTP ([…], time 28 day) was 0.8 IU/L.
